In patent publication US20140005163A1 (NOVARTIS AG, priority 2010, published 2014):

Legend:
Type in all cases: biochemical
PI3K alpha = target: T1, PI3K alpha (Homo sapiens, UniProt P42336); assay: PI3K alpha kinase assay (Kinase-Glo luminescence)
T1 construct: p85(iSH2) fusion partner (see partner chain) (N); His tag (C); made in house; host or cells: baculovirus; Tn5 (Trichoplusia ni) or TiniPro insect cells
How it was run: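 PI3Kα construct EMV B1075 (10 nM final) was preincubated with 10 μg/mL phosphatidylinositol in 10 mM Tris-HCl pH 7.5, 3 mM MgCl2, 50 mM NaCl, 0.05% CHAPS, 1 mM DTT. Reaction started with 1 μM ATP, 60 min at room temperature; remaining ATP measured by Kinase-Glo luminescence. IC50 from 4-parameter logistic fit of 8-point titrations.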

PI3K delta = target: T2, PI3K delta (Homo sapiens, UniProt O00329); assay: PI3K delta kinase assay (Kinase-Glo luminescence)
T2 construct: for the full-length p110-d subunit are generated and fused by overlapping PCR; p85(iSH2) fusion partner (see partner chain) (N); His tag (C); made in house; host or cells: baculovirus; Tn5 (Trichoplusia ni) or TiniPro insect cells
T2 sequence (O00329 with tags, fused parts or gaps limits assumed): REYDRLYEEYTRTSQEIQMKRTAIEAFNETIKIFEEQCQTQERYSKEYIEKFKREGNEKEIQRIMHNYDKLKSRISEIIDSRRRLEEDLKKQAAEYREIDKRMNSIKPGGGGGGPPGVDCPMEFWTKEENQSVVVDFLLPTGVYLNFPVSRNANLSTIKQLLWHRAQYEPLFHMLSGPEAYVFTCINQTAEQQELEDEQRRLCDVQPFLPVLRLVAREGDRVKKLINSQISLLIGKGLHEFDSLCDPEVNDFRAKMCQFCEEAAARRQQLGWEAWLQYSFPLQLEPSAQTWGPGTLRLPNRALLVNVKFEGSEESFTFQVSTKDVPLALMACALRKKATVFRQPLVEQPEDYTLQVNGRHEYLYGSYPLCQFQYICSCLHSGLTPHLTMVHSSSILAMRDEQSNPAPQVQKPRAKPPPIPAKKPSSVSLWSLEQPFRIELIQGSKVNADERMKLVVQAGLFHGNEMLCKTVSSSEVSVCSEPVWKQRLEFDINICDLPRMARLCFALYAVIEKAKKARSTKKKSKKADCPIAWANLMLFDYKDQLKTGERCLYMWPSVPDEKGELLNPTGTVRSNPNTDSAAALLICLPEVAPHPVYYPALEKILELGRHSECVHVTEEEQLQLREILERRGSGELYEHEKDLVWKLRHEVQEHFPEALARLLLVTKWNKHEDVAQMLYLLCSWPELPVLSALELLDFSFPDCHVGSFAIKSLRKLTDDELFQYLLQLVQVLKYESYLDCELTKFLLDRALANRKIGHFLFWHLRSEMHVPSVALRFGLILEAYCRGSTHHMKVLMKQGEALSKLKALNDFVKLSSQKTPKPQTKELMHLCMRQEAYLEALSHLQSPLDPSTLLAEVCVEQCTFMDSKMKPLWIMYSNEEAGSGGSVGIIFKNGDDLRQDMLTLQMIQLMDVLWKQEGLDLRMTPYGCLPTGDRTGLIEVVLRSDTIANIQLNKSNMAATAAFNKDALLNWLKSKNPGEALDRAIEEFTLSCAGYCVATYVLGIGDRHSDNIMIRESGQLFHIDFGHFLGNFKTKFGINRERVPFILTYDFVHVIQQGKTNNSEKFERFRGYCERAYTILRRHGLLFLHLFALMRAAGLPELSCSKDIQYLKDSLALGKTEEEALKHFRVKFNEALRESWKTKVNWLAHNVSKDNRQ
How it was run: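 Recombinant p85(iSH2)-Gly linker-p110δ full-length construct (BV1060, C-terminal His tag) was used at 10 nM with 10 μg/mL phosphatidylinositol and 1 μM ATP in 10 mM Tris-HCl pH 7.5, 3 mM MgCl2, 50 mM NaCl, 0.05% CHAPS, 1 mM DTT. After 60 min at room temperature, remaining ATP was measured by Kinase-Glo luminescence.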

PI3K beta = target: T3, PI3K beta (Homo sapiens, UniProt P42338); assay: PI3K beta kinase assay (Kinase-Glo luminescence)
T3 construct: for the full-length p110-b subunit are generated and fused by overlapping PCR; p85(iSH2) fusion partner (see partner chain) (N); His tag (C); made in house; host or cells: baculovirus; Tn5 (Trichoplusia ni) or TiniPro insect cells
T3 sequence (P42338 with tags, fused parts or gaps limits assumed): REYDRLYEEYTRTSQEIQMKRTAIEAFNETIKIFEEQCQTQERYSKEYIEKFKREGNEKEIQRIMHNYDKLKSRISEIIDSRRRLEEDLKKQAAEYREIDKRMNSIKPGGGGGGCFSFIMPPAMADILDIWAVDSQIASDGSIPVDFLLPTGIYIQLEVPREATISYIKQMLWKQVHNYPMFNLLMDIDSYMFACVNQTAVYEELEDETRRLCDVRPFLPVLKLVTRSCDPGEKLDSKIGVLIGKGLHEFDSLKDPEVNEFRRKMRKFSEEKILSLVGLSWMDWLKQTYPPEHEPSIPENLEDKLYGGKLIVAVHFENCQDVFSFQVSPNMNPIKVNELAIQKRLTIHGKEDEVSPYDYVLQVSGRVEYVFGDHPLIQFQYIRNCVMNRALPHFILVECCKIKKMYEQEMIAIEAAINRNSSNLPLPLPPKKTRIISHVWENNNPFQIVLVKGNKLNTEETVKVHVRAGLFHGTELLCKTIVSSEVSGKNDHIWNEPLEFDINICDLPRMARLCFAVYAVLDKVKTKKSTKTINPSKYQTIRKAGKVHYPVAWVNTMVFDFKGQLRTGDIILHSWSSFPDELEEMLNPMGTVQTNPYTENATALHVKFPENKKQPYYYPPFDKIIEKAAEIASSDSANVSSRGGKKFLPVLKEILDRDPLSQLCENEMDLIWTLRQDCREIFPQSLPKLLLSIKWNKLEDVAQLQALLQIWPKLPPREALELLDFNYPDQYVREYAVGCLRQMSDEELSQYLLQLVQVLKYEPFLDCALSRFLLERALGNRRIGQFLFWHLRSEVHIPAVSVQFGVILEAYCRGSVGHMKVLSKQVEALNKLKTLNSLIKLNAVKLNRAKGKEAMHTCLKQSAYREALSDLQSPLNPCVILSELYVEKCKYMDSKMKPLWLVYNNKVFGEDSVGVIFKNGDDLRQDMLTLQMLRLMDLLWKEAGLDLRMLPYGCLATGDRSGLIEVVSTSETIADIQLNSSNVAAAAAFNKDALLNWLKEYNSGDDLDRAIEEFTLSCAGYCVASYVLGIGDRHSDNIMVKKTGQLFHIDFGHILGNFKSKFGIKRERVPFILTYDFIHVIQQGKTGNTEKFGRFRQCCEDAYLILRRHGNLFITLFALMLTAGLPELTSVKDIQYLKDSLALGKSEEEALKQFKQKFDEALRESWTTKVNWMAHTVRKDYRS
How it was run: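 Enzyme: BV949 p85(iSH2)-Gly linker-p110β FL-His, 25 nM. Substrate: PI 10 μg/mL. ATP: 1 μM, added to start. Buffer: Tris pH 7.5 10 mM, MgCl2 3 mM, NaCl 50 mM, CHAPS 0.05%, DTT 1 mM. RT, 60 min. Readout: Kinase-Glo. IC50 by 4-parameter fit.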

T1 sequence (P42336 with tags, fused parts or gaps limits assumed): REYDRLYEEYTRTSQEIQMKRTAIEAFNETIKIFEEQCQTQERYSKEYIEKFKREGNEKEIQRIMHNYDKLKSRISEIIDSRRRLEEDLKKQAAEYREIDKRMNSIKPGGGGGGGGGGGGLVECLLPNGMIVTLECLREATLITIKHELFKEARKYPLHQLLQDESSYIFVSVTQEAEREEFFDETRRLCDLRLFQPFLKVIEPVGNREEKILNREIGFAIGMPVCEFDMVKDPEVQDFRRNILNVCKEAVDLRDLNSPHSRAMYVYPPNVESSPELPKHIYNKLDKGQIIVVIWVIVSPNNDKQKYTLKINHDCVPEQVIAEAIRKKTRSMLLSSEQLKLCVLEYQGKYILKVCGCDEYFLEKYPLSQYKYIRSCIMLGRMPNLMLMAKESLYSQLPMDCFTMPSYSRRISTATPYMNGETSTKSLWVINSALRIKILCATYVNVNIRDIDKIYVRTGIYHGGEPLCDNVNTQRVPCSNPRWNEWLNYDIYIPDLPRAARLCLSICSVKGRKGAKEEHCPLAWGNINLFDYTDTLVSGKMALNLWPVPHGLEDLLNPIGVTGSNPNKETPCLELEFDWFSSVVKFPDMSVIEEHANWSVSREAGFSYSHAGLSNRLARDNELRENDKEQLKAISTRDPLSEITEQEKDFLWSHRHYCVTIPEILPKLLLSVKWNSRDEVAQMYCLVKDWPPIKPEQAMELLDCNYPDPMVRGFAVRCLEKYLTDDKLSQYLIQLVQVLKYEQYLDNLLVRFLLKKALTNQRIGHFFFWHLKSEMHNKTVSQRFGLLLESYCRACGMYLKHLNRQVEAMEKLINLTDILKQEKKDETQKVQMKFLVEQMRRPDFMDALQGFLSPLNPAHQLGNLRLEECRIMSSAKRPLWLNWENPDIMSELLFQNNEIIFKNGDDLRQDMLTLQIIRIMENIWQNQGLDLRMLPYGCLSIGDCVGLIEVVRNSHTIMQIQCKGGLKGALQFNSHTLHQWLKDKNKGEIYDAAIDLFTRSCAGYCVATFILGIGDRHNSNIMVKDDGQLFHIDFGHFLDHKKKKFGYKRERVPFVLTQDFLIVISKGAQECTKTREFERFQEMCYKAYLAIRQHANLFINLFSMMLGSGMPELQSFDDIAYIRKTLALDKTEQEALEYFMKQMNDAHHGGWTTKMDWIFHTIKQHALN

| Compound | IC50 (PI3K alpha) | IC50 (PI3K delta) | IC50 (PI3K beta) |
| --- | --- | --- | --- |
| CCOc1ccc(-c2ccc3ncc4c(c3c2)n(-c2c(C)nn(CC(=O)N(C)C)c2C)c(=O)n4C)cn1 [Example 3.12, 2-{4-[8-(6-Ethoxy-pyridin-3-yl)-3-methyl-2-oxo-2,3-dihydro-imidazo[4,5-c]quinolin-1-yl]-3,5-dimethyl-pyrazol-1-yl}-N,N-dimethyl-acetamide] | 57 nM | 721 nM | – |
| Cc1cc(-n2c(=O)n(C)c3cnc4ccc(-c5ccc(C(F)(F)F)nc5)cc4c32)n(C)n1 [Example 8.2, 1-(2,5-Dimethyl-2H-pyrazol-3-yl)-3-methyl-8-(6-trifluoromethyl-pyridin-3-yl)-1,3-dihydro-imidazo[4,5-c]quinolin-2-one] | 95 nM | 120 nM | 387 nM |
| Cc1nn(C)cc1-n1c(=O)n(C)c2cnc3ccc(-c4ccc(N)nc4)cc3c21 [Example 23.1, 8-(6-Amino-pyridin-3-yl)-1-(1,3-dimethyl-1H-pyrazol-4-yl)-3-methyl-1,3-dihydro-imidazo[4,5-c]quinolin-2-one] | 8 nM | 15 nM | 41 nM |
| Cc1nn(C)cc1-n1c(=O)n(C)c2cnc3ccc(-c4cncc(N)c4)cc3c21 [Example 45.1, 8-(5-Amino-pyridin-3-yl)-1-(1,3-dimethyl-1H-pyrazol-4-yl)-3-methyl-1,3-dihydro-imidazo[4,5-c]quinolin-2-one] | 14 nM | 19 nM | 47 nM |
| CCOc1cncc(-c2ccc3ncc4c(c3c2)n(-c2c(C)cnn2C)c(=O)n4C)c1 [Example 56.5, 1-(2,4-Dimethyl-2H-pyrazol-3-yl)-8-(5-ethoxy-pyridin-3-yl)-3-methyl-1,3-dihydro-imidazo[4,5-c]quinolin-2-one] | 155 nM | 196 nM | 193 nM |
| CCOc1ccc(-c2ccc3ncc4c(c3c2)n(-c2cn(CC(=O)N3CCC3)nc2C)c(=O)n4C)cn1 [Example 138, 1-[1-(2-Azetidin-1-yl-2-oxo-ethyl)-3-methyl-1H-pyrazol-4-yl]-8-(6-ethoxy-pyridin-3-yl)-3-methyl-1,3-dihydro-imidazo[4,5-c]quinolin-2-one] | 13 nM | 42 nM | 377 nM |
| CCN(CC)C(=O)Cn1cc(-n2c(=O)n(C)c3cnc4ccc(-c5ccc(C)nc5)cc4c32)c(C)n1 [Example 139, N,N-Diethyl-2-{3-methyl-4-[3-methyl-8-(6-methyl-pyridin-3-yl)-2-oxo-2,3-dihydro-imidazo[4,5-c]quinolin-1-yl]-pyrazol-1-yl}-acetamide] | 17 nM | 69 nM | – |
| CCn1cc(-n2c(=O)n(C)c3cnc4ccc(-c5cnc(NC)c(Cl)c5)cc4c32)c(C)n1 [Example 146.2, 8-(5-Chloro-6-methylamino-pyridin-3-yl)-1-(1-ethyl-3-methyl-1H-pyrazol-4-yl)-3-methyl-1,3-dihydro-imidazo[4,5-c]quinolin-2-one] | 119 nM | 30 nM | 66 nM |
| Cc1nn(C(C)C)cc1-n1c(=O)n(C)c2cnc3ccc(-c4cnc(F)c(N)c4)cc3c21 [Example 149.1, 8-(5-Amino-6-fluoro-pyridin-3-yl)-1-(1-isopropyl-3-methyl-1H-pyrazol-4-yl)-3-methyl-1,3-dihydro-imidazo[4,5-c]quinolin-2-one] | 48 nM | 17 nM | 68 nM |
| CCn1cc(-n2c(=O)n(C)c3cnc4ccc(-c5cnc(F)c(NC)c5)cc4c32)c(C)n1 [Example 150.1, 1-(1-Ethyl-3-methyl-1H-pyrazol-4-yl)-8-(6-fluoro-5-methylamino-pyridin-3-yl)-3-methyl-1,3-dihydro-imidazo[4,5-c]quinolin-2-one] | 7 nM | 8 nM | 17 nM |
| CCNc1cc(-c2ccc3ncc4c(c3c2)n(-c2cn(C(C)C)nc2C)c(=O)n4C)cnc1CO [Example 155.3, 8-(5-Ethylamino-6-hydroxymethyl-pyridin-3-yl)-1-(1-isopropyl-3-methyl-1H-pyrazol-4-yl)-3-methyl-1,3-dihydro-imidazo[4,5-c]quinolin-2-one] | 30 nM | 10 nM | 46 nM |
| Cc1nn(C)cc1-n1c(=O)n(C)c2cnc3ccc(-c4ccc(N5CC[C@@H](O)C5)nc4)cc3c21 [Example 212.1, 1-(1,3-Dimethyl-1H-pyrazol-4-yl)-8-[6-((R)-3-hydroxy-pyrrolidin-1-yl)-pyridin-3-yl]-3-methyl-1,3-dihydro-imidazo[4,5-c]quinolin-2-one] | 53 nM | 111 nM | – |

More lines, in order of falling IC50 (PI3K alpha), values ahead:

| IC50 (PI3K alpha) | IC50 (PI3K delta) | IC50 (PI3K beta) | Compound |
| --- | --- | --- | --- |
| 375 nM | 163 nM | – | Cc1nn(C)cc1-n1c(=O)n(C)c2cnc3ccc(-c4cnc5c(c4)nc(N(C)C)n5C)cc3c21 [Example 70, 8-(2-Dimethylamino-3-methyl-3H-imidazo[4,5-b]pyridin-6-yl)-1-(1,3-dimethyl-1H-pyrazol-4-yl)-3-methyl-1,3-dihydro-imidazo[4,5-c]quinolin-2-one] |
| 161 nM | 922 nM | – | COCCN(C)C(=O)Cn1cc(-n2c(=O)n(C)c3cnc4ccc(-c5ccccc5)cc4c32)c(C)n1 [Example 137, N-(2-Methoxy-ethyl)-N-methyl-2-[3-methyl-4-(3-methyl-2-oxo-8-phenyl-2,3-dihydro-imidazo[4,5-c]quinolin-1-yl)-pyrazol-1-yl]-acetamide] |
| 51 nM | 30 nM | 281 nM | Cc1nn(C)c(C)c1-n1c(=O)n(C)c2cnc3ccc(-c4cnc(N)nc4)cc3c21 [Example 81.2, 8-(2-Amino-pyrimidin-5-yl)-3-methyl-1-(1,3,5-trimethyl-1H-pyrazol-4-yl)-1,3-dihydro-imidazo[4,5-c]quinolin-2-one] |
| 42 nM | 71 nM | 332 nM | CCOc1ccc(-c2ccc3ncc4c(c3c2)n(-c2cn(CCO)nc2C)c(=O)n4C)cn1 [Example 103.2, 8-(6-Ethoxy-pyridin-3-yl)-1-[1-(2-hydroxy-ethyl)-3-methyl-1H-pyrazol-4-yl]-3-methyl-1,3-dihydro-imidazo[4,5-c]quinolin-2-one] |
| 35 nM | 43 nM | 197 nM | Cc1nn(C(C)C)cc1-n1c(=O)n(C)c2cnc3ccc(-c4ccc(N)nc4)cc3c21 [Example 23.2, 8-(6-Amino-pyridin-3-yl)-1-(1-isopropyl-3-methyl-1H-pyrazol-4-yl)-3-methyl-1,3-dihydro-imidazo[4,5-c]quinolin-2-one] |
| 12 nM | 17 nM | 25 nM | Cc1nn(C)cc1-n1c(=O)n(C)c2cnc3ccc(-c4cncc(OCC5CC5)c4)cc3c21 [Example 61, 8-(5-Cyclopropylmethoxy-pyridin-3-yl)-1-(1,3-dimethyl-1H-pyrazol-4-yl)-3-methyl-1,3-dihydro-imidazo[4,5-c]quinolin-2-one] |
| 11 nM | 4 nM | 28 nM | Cc1ncc(-c2ccc3ncc4c(c3c2)n(-c2cn(C)nc2Cl)c(=O)n4C)cc1N [Example 88.1, 8-(5-Amino-6-methyl-pyridin-3-yl)-1-(3-chloro-1-methyl-1H-pyrazol-4-yl)-3-methyl-1,3-dihydro-imidazo[4,5-c]quinolin-2-one] |
| 10 nM | 9 nM | 16 nM | CNc1ncc(-c2ccc3ncc4c(c3c2)n(-c2cn(C)nc2C)c(=O)n4C)cc1C(F)(F)F [Example 144.3, 1-(1,3-Dimethyl-1H-pyrazol-4-yl)-3-methyl-8-(6-methylamino-5-trifluoromethyl-pyridin-3-yl)-1,3-dihydro-imidazo[4,5-c]quinolin-2-one] |
| 10 nM | 3 nM | 14 nM | CCNc1cc(-c2ccc3ncc4c(c3c2)n(-c2c(C)nn(C)c2C)c(=O)n4C)cnc1Cl [Example 153.1, 8-(6-Chloro-5-ethylamino-pyridin-3-yl)-3-methyl-1-(1,3,5-trimethyl-1H-pyrazol-4-yl)-1,3-dihydro-imidazo[4,5-c]quinolin-2-one] |
| 9 nM | 5 nM | 37 nM | COc1ncc(-c2ccc3ncc4c(c3c2)n(-c2cn(C)nc2Cl)c(=O)n4C)cn1 [Example 17.3, 1-(3-Chloro-1-methyl-1H-pyrazol-4-yl)-8-(2-methoxy-pyrimidin-5-yl)-3-methyl-1,3-dihydro-imidazo[4,5-c]quinolin-2-one] |
| 7 nM | 8 nM | 12 nM | Cc1nn(C)cc1-n1c(=O)n(C)c2cnc3ccc(-c4cnc(F)c(N)c4)cc3c21 [Example 149.2, 8-(5-Amino-6-fluoro-pyridin-3-yl)-1-(1,3-dimethyl-1H-pyrazol-4-yl)-3-methyl-1,3-dihydro-imidazo[4,5-c]quinolin-2-one] |
| 6 nM | 3 nM | 12 nM | CCOc1cc(-c2ccc3ncc4c(c3c2)n(-c2cn(C)nc2C)c(=O)n4C)cnc1C [Example 85.1, 1-(1,3-Dimethyl-1H-pyrazol-4-yl)-8-(5-ethoxy-6-methyl-pyridin-3-yl)-3-methyl-1,3-dihydro-imidazo[4,5-c]quinolin-2-one] |
